From patent US6056958A, “Method of treatment of arterial and venous thromboembolic disorders” (Dupont Pharmaceuticals, priority 1997, dated 2000)
Non-standard residues stand in square brackets, D forms with d. Residues, ends and D or L forms follow the SMILES beside them. 3Amb = NCc1cccc(C(=O)O)c1

What was measured:
Platelet Aggregation = Platelet Aggregation Assay (in vitro, ADP-induced, platelet-rich plasma); type: cell-based, mongrel dogs or human
Method: Platelet Aggregation Assay
Venous blood was obtained from anesthetized mongrel dogs or from healthy human donors who were drug-free and aspirin-free for at least two weeks prior to blood collection. Blood was collected into citrated Vacutainer tubes. The blood was centrifuged for 15 minutes at 150× g (850 RPM in a Sorvall RT6000 Tabletop Centrifuge with H-1000 B rotor) at room temperature, and platelet-rich plasma (PRP) was removed. The remaining blood was centrifuged for 15 minutes at 1500× g ([…]) at room temperature, and platelet-poor plasma (PPP) was removed. Samples were assayed on an aggregometer (PAP-4 Platelet Aggregation Profiler), using PPP as the blank (100% transmittance). 200 μL of PRP (5×10^8 platelets/mL) were added to each micro test tube, and transmittance was set to 0%. 20 μl of ADP (10 μM) was added to each tube, and the aggregation profiles were plotted (% transmittance versus time). Test agent (20 μL) was added at different concentrations prior to the addition of the platelet agonist. Results are expressed as % inhibition of agonist-induced platelet aggregation.

GPIIb/IIIa receptor = target: T1, GPIIb/IIIa receptor (Homo sapiens, UniProt P05106+P08514); test: GPIIb/IIIa Receptor-Biotinylated Fibrinogen Binding Assay; settings: inhibition of fibrinogen binding to purified GPIIb/IIIa
T1 construct: The GPIIb/IIIa receptor was purified from human platelets; from tissue; host or cells: human platelets (purified according to D'Souza et al., J. Biol. Chem. 1990, 265:3440-3446)
Excerpt: (§1) Compounds may be tested for their ability to block binding of vitronectin to the αv /β3 receptor and to block the binding of fibrinogen to GPIIb/IIIa receptor in the αv /β3 -Biotinylated Vitronectin Binding Assay and GPIIb/IIIa Receptor-Biotinylated Fibrinogen Binding Assay described below.
GPIIb/IIIa Receptor-Biotinylated Fibrinogen Binding Assay
The GPIIb/IIIa receptor was purified from human platelets according to D'Souza et al. (J. Biol. Chem., 1990, 265:3440-3446). The purified GPIIb/IIIa protein was coated on 96 well plates and the competition between test compound and biotinylated fibrinogen for binding to the plate-immobilized GPIIb/IIIa receptor was determined by ELISA as described below. Bound fibrinogen was detected using an avidin-alkaline phosphatase conjugate and paranitrophenol detection at […]. For IC50 determination, test agent was added at various concentrations to plates coated with purified GPIIb/IIIa protein which was followed by the addition of biotinylated fibrinogen. The inhibitory binding constant (Ki) of test agents were calculated under this assay system using standard Michaelis-Menten analysis. The IC50 is the concentration of test substance needed to block 50% of the fibrinogen binding to the GPIIb/IIIa receptor.
The following reagents may be used in the GPIIb/IIIa-fibrinogen binding ELISA:
purified GPIIb/IIIa (148.8 μg/mL);
biotinylated fibrinogen (~1 mg/mL or 3000 nM);
anti-biotin alkaline phosphatase conjugate (Sigma no. A7418);
flat-bottom, high binding, 96-well plates (Costar Cat. no. 3590);
phosphatase substrate (Sigma 104) (40 mg capsules);
bovine serum albumin (BSA) (Sigma no. A3294);
Alkaline Phosphatase buffer--0.1 M glycine-HCl, 1 mM MgCl2.6H2 O, 1 mM ZnCl2, pH 10.4;
Binding buffer--20 mM Tris-HCl, 150 mM NaCl, 1 mM CaCl2.2H2 O, 0.02% NaN3, pH 7.0;
Buffer A--50 mM Tris-HCl, 100 mM NaCl, 2 mM CaCl2.2H2 O, 0.02% NaN3, pH 7.4;
Buffer A+3.5% BSA (Blocking buffer);
Buffer A+0.1% BSA (Dilution buffer);
The following method steps are used in the GPIIb/IIIa-fibrinogen binding ELISA:
Coat plates with GPIIb/IIIa in Binding buffer (125 ng/100 μL/well) overnight at 4° C. (Leave first column uncoated for non-specific binding). Cover and freeze plates at -70° C. until used. Thaw plate 1 hour at room temperature or overnight at 4° C. Discard coating solution and wash once with 200 μL Binding buffer per well. Block plate 2 hours at room temperature on shaker with 200 μl Buffer A+3.5% BSA (Blocking buffer) per well. Discard Blocking buffer and wash once with 200 μL Buffer A+0.1% BSA (Dilution buffer) per well. Pipet 11 μL of test compound (10× the concentration to be tested in Dilution buffer) into duplicate wells. […] Read plate at 405 nm. Blank against non-specific binding (NSB) well. % Inhibition is calculated as 100-(Test Compound Abs/Total Abs)×100.

αv /β3 receptor = target: T2, αv /β3 receptor (Homo sapiens, UniProt P05106+P06756); test: αv/β3-Biotinylated Vitronectin Binding Assay; settings: for IC50: inhibition of vitronectin binding to purified αv/β3; for Relative Binding Affinity for αv /β3 Relative to GPIIb/IIIa: ratio of IC50 values (GPIIb/IIIa over αv/β3)
T2 construct: The αv /β3 receptor was isolated from human placental extracts prepared using octylglucoside; from tissue
Excerpt: as §1
αv /β3 -Biotinylated Vitronectin Binding Assay
The αv /β3 receptor was isolated from human placental extracts prepared using octylglucoside. The extract was passed over an anti-αv /β3 monoclonal antibody (LM609) affinity column (prepared using LM609 and Affigel 10). The column was subsequently washed extensively at pH 7 and pH 4.5 followed by elution at pH 3. The resulting sample was concentrated by wheat germ agglutinin chromatography to provide a αv /β3 -containing sample which gave two bands on SDS-PAGE which were confirmed as αv /β3 by western blotting.
The affinity purified αv /β3 protein as described above was diluted at different levels and plated to 96 well plates (about 15 ng of αv /β3 protein per well). ELISA detection of αv /β3 -bound biotinylated vitronectin was performed as described below using fixed concentration of biotinylated vitronectin (approximately 80 nM/well). This αv /β3 receptor preparation contains the αv /β3 with no detectable levels of αv /β5 according to the gel and according to effects of blocking antibodies for the αv /β3 or αv /β5 in the ELISA.
A submaximal concentration of biotinylated vitronectin was selected based on concentration response curves with fixed αv /β3 receptor concentration and variable concentrations of biotinylated vitronectin.
The purified αv /β3 receptor is diluted with coating buffer (20 mM Tris HCl, 150 mM NaCl, 2.0 mM CaCl2, 1.0 mM MgCl2.6H2 O, 1.0 mM MnCl2.4H2 O) and coated (100 μL/well) on Costar (3590) high capacity 96-well plates overnight at 4° C. The coating solution is discarded and the plates washed once with blocking/binding buffer (B/B buffer: 50 mM Tris HCl, 100 mM NaCl, 2.0 mM CaCl2, 1.0 mM MgCl2.6H2 O, 1.0 mM MnCl2.4H2 O). The plate-immobilized αv /β3 receptor is then blocked (200 μl/well) with 3.5% BSA in B/B buffer for 2 hours at room temperature. After washing once with 1.0% BSA in B/B buffer, biotinylated vitronectin (100 μL) and either test compound (inhibitor) (11 μL) or B/B buffer w/1.0% BSA (11 μL) is added to each well. The plates are incubated 2 hours at room temperature. The plates are washed twice with B/B buffer and incubated 1 hour at room temperature with anti-biotin alkaline phosphatase (100 μL/well) in B/B buffer containing 1.0% BSA. The plates are washed twice with B/B buffer and alkaline phosphatase substrate (100 μL) is added. Color is developed at room temperature. Color development is stopped by addition of 2N NaOH (25 μL/well) and absorbance is read at 405 nm.
The inhibitory binding constant (Ki) of test agents 30 may be calculated under this assay system using Michaelis-Menten analysis. The IC50 is the concentration of test substance needed to block 50% of the vitronectin binding to the αv /β3 receptor. The IC50 for the inhibition of binding of vitronectin to the αv /β3 receptor was determined based on time averaged values for the inhibition of vitronectin binding. Thus, the inhibition of vitronectin binding for each concentration of test compound was measured every 30 seconds over a 2 hour period and the average value of inhibition of vitronectin binding over such 2 hour period was used for the determination of the IC50.

[1] = tested on: canine thrombosis model (carotid artery); test: Carotid artery reocclusion in canine thrombosis model with tPA; type: in vivo; settings: dog carotid
Method: Compounds useful in the method of the present invention are useful for the prevention of reocclusion as an adjunct to fibrinolytic therapy, as shown in the animal model tests described below. The effect of compound A in combination with tPA on the incidence of carotid artery reocclusion in dogs was assessed using a protocol as described by Mousa et al., Circulation 1994, 89:3-12.

[2] = tPA 0.5 mg locally, 1.5 mg IV bolus, compound A 0.1 mg/kg IV bolus + 0.4 mg/kg IV infusion 3 hr, mean ± SD

T2 sequence (P06756 31-889 limits assumed): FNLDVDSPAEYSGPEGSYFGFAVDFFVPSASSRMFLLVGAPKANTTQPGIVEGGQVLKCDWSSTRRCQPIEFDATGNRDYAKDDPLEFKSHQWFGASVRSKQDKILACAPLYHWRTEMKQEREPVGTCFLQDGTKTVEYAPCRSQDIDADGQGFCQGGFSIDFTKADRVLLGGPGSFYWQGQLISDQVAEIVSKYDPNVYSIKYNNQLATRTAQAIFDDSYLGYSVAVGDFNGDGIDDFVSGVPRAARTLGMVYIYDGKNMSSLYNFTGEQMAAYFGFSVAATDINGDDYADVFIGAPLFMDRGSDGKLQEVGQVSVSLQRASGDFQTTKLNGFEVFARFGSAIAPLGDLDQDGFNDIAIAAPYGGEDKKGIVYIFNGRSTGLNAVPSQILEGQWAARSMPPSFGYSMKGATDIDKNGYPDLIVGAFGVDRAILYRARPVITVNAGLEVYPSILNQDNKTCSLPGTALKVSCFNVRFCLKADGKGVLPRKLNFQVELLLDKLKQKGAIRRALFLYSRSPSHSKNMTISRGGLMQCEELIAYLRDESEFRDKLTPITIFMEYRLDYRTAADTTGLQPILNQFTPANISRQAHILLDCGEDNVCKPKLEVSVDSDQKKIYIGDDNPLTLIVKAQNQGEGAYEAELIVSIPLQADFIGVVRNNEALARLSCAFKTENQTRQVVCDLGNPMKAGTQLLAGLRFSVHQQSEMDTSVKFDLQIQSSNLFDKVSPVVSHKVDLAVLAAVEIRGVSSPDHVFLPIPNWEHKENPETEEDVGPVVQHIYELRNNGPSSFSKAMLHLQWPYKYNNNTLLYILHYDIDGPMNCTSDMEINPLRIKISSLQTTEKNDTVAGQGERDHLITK
T2 sequence (P06756 891-1048 partner limits assumed): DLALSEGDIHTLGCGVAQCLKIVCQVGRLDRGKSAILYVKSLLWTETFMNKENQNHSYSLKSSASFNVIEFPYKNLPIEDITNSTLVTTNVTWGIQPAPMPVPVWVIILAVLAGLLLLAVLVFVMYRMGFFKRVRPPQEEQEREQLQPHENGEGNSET
T2 sequence (P05106 27-788): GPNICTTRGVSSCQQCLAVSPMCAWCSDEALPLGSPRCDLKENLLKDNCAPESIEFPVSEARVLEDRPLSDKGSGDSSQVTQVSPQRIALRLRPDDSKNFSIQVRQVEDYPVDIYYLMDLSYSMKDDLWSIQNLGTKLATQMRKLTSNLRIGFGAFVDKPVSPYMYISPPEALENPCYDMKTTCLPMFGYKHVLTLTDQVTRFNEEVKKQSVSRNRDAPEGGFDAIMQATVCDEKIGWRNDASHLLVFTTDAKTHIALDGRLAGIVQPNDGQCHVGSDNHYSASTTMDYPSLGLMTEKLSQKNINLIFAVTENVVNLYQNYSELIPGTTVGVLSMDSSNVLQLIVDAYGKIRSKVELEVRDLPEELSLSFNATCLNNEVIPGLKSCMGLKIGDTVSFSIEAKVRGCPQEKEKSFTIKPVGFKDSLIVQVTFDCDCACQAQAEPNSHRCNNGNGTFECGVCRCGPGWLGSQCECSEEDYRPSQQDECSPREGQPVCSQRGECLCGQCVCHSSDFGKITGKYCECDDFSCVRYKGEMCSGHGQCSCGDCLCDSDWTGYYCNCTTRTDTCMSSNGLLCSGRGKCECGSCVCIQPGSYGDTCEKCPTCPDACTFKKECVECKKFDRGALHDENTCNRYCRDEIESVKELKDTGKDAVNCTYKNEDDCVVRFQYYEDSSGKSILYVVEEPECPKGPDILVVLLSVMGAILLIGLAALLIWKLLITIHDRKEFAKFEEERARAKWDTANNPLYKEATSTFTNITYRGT
T1 sequence (P08514 32-887 limits assumed): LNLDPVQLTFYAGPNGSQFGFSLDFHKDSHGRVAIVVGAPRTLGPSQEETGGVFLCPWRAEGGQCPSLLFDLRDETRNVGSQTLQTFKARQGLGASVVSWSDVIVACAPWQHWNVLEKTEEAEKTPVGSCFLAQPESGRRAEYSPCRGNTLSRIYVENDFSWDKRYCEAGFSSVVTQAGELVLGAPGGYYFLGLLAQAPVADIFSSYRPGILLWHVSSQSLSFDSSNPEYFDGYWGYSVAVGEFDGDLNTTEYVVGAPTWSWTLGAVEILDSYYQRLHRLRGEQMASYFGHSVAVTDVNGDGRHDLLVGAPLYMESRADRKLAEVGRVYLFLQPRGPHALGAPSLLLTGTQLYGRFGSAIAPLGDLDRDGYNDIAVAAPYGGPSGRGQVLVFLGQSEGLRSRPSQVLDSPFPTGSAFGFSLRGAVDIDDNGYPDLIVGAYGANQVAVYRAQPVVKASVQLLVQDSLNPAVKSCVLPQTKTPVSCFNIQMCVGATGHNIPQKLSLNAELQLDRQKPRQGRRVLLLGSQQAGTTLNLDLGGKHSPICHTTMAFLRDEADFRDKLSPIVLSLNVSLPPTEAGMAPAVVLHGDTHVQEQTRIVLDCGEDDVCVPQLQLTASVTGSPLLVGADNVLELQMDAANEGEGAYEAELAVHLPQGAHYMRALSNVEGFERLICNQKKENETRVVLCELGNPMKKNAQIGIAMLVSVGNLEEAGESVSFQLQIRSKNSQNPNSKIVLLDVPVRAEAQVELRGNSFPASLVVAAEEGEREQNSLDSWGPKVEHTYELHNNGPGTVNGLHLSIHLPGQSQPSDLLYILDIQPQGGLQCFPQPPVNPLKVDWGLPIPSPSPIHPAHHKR
T1 sequence (P08514 891-1039 partner limits assumed): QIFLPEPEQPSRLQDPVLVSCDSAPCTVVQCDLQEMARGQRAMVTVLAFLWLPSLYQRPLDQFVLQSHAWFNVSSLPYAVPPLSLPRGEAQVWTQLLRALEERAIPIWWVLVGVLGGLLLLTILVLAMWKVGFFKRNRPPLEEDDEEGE
T1 sequence (P05106 27-788): as the sequence (P05106 27-788) above

Row | Compound | IC50 (Platelet Aggregation) [nM] | IC50 (GPIIb/IIIa receptor) [nM] | IC50 (αv /β3 receptor) [nM] | Relative Binding Affinity for αv /β3 Relative to GPIIb/IIIa (αv /β3 receptor) | Blood Flow, Basal ([1]; basal, tPA with or without compound A, mean ± SD) [cm/s] | Blood Flow, End ([1]; end, tPA with or without compound A) [cm/s] | Blood Flow, Reperfusion ([1]; reperfusion, tPA with or without compound A, mean ± SD) [cm/s] | Thrombus Weight (wet, mg) [1, 2] [mg] | Time to Occlusion [1, 2] [min] | Time to Reocclusion [1, 2] [min] | Time to Reperfusion [1, 2] [min]
1 | N=C(N)NCCC[C@@H]1NC(=O)[C@H](CCCCN)NC(=O)c2cccc(c2)CNC(=O)[C@H](CC(=O)O)NC(=O)CNC1=O [Compound D, cyclo-(Lys-Arg-Gly-Asp-Mamb)] (cyclo(RGD[3Amb]K)) | 23000 | 359 | 1.9 | 189 | – | – | – | – | – | – | –
2 | tPA: tissue plasminogen activator, thrombolytic agent | – | – | – | – | 30 ± 2.5 | 0 | 24.2 ± 8 | 36.2 ± 19.4 | 80 ± 25 | 23 ± 10 | 15 ± 10
3 | CC(C)C[C@@H]1NC(=O)c2cccc(c2)CNC(=O)[C@H](CC(=O)O)NC(=O)CNC(=O)[C@H](CCCNC(=N)N)NC1=O [Compound E, cyclo-(Leu-Arg-Gly-Asp-Mamb)] (cyclo(RGD[3Amb]L)) | 41000 | 430 | 1.4 | 307 | – | – | – | – | – | – | –
